{"source": "patent US7652037B2", "about": "“Methods of lowering lipid levels in a mammal” (City Of Hope, priority 2003, dated 2010)", "key": {"[1]": {"assay": "Superoxide production, methylglyoxal with N-α-acetyl-lysine, WST-1 assay", "description": "The superoxide radical scavenging activity of the compounds was evaluated using the WST-1 method described in Ukeda et al., Anal. Sci. 18:1151-1154, 2002. Briefly, methylglyoxal, was incubated with or without N-α-acetyl-lysine in 0.05 M chelex-treated sodium phosphate buffer, pH 7.4, in the presence of various concentrations of the inhibitor compounds. The production of superoxide was monitored spectrophotometrically at 438 nm, and compared with superoxide dismutase and Tiron, two known superoxide radical scavengers."}, "[2]": {"tested_on": "STZ-Diabetic Rats", "assay": "Nitrotyrosine staining of kidney", "format": "in vivo, rat", "description": "Nitrotyrosine, a marker for protein oxidation, was used as an index of oxidative tissue damage caused by reactive nitrogen species. Immunohistochemical detection of nitrotyrosine was performed as reported previously (Forbes et al., Diabetes 51:3274-3282, 2002) and followed in this study with little modification. Briefly, formalin-fixed kidney sections (5 μm thick), taken from representative rats from each treatment group at 32 weeks, were mounted on slides, dewaxed and hydrated. After incubation with Proteinase K for 10 minutes, sections were incubated in 3% hydrogen peroxide for 20 minutes, blocked with normal porcine serum for 20 minutes, and then stained with commercially available rabbit polyclonal anti-nitrotyrosine antibodies for 1 hour. After rinsing with DAKO rinse buffer, sections were incubated with biotinylated anti-rabbit IgG for 25 minutes, followed by incubation with avidin-biotin horseradish peroxidase complex for 25 minutes."}, "[3]": {"tested_on": "STZ-Diabetic Rats", "assay": "AGE immunohistochemistry of kidney (6D12 anti-CML antibody)", "format": "in vivo, rat", "description": "For immunohistochemical AGE staining, formalin-fixed […] embedded sections (2 μm thick) were mounted on slides coated with 2-aminopropyltriethoxy silane, baked for 3 hours at 58° C., deparaffinized, rinsed with 3% hydrogen peroxide, and incubated with Proteinase K (0.5 mg/mL) for 5 minutes at room temperature. These sections were washed with rinse buffer and blocked with Protein Blocking Agent for 5 minutes and subsequently incubated with 6D12 anti-AGE mouse monoclonal antibody specific for CML for 30 minutes at room temperature. After washing with rinse buffer, the sections were incubated with EnVision™ with labeled polymer peroxidase-conjugated mouse anti-IgG for 30 minutes at room temperature, followed by detection with 3,3′-diaminobenzidine tetrahydrochloride solution as chromogen and 50% hematoxylin as counterstain."}, "[4]": {"tested_on": "STZ-Diabetic Rats", "assay": "Kidney anatomy and histopathology (PAS, trichrome, Picrosirius red, TEM)", "format": "in vivo, rat", "from_the_text": "To quantitate glomerulosclerosis (defined as glomerular basement membrane thickening, mesangial hypertrophy, and capillary occlusion), kidney sections were stained with periodic acid Schiff (PAS) reagent. A total of 150 glomeruli were randomly chosen from each rat kidney (four different kidneys per treatment) and carefully graded for sclerosis, by a blinded evaluator. The degree of sclerosis in each glomerulus was graded subjectively on a scale of 1 to 4 as follows: grade 1, sclerotic area less than 25%; grade 2, sclerotic area 25-50%; grade 3, sclerotic area 51-75%; and grade 4, sclerotic area more than 75%. The glomerulosclerotic index (GSI) then was calculated using the following formula: GSI=Σ^4i=1 Fi (I), where Fi is the percentage of glomeruli in the rat with a given score of (I). See Wilkinson-Berka et al., Diabetes 51:3283-3289, 2002. To quantitate glomerulosclerosis, kidney sections were stained with periodic acid Schiff (PAS) reagent.\nCellular infiltrates were identified in the renal interstitium from 5 μm-thick kidney sections stained with PAS. Infiltrates in each kidney sample were graded as follows: + (patchy and light), ++ (patchy and dense), +++ (diffuse and dense with aggregates of neutrophils in tubules or in interstitium) also in a blinded manner. For collagen deposition staining in the kidneys, paraffin sections were randomly chosen from kidneys from each treatment group and stained with Masson's trichrome. Briefly, the sections were deparaffined, hydrated with water, and immersed in Mordant in Boiuin's solution for 10 minutes. The sections then were rinsed in water and stained with Mayer's hematoxylin for 6 minutes. After rinsing in water, Biebrich scarlet-acid fuchsin was added for 2 minutes, rinsed, phosphomolybdic-phosphotungstic solution added for 15 minutes, followed by aniline blue solution for 10 minutes. After rinsing the sections with water, glacial acetic acid was added for 20 seconds and then the slides were dehydrated with 95% ethanol. With this method, blue and red colors indicate collagen and cytoplasm staining, respectively. […]"}}, "note": "“Also recorded” adds a separate entry of the source.", "data": [{"compound": "CC(Oc1cccc2cccnc12)C(=O)O", "note": "(stereo not drawn) [LR-74, 2-(8-quinolinoxy) propionic acid]", "values": [{"measurement": "effect on superoxide production", "setting": "[1]", "result": "little or no effect"}]}, {"compound": "methylene bis(4,4′-(2-chlorophenylureidophenoxyisobutyric acid) [LR-90]", "values": [{"measurement": "nitrotyrosine staining in renal cortical tubules", "setting": "[2]", "result": "decreased the overall oxidative damage"}, {"measurement": "AGE staining in kidney glomeruli and cortical tubules", "setting": "[3]", "result": "visibly reduced"}, {"measurement": "basement membrane thickening (TEM photographs)", "setting": "[4]", "result": "reduced basement membrane thickening"}, {"measurement": "cellular infiltrates in the renal interstitium", "setting": "[4]", "result": "prevented cell infiltration; also recorded: no neutrophils were detected"}, {"measurement": "collagen deposited inside the glomeruli and the tubulointerstitium (Picrosirius red)", "setting": "[4]; 32 weeks", "result": "reduced"}]}]}
